Some results are limits rather than exact numbers.

This note sets out measurements from patent US9266835B2, “Quinoline derivatives useful as CB-1 inverse agonists” (JANSSEN PHARMACEUTICA NV, priority 2014, dated 2016).

The target in experiment [1] is Human CB1R (Cannabinoid receptor 1) (Homo sapiens (Human), UniProt P21554). The experiment can be described thus: CB-1 in vitro cAMP assay (HTRF), inverse agonism. In kind it is cell-based. The settings on record: mean where tested more than once. Background: Changes in cAMP serve as a functional read-out for many G protein-coupled receptors.
Chain of Human CB1R (Cannabinoid receptor 1) (P21554 whole entry): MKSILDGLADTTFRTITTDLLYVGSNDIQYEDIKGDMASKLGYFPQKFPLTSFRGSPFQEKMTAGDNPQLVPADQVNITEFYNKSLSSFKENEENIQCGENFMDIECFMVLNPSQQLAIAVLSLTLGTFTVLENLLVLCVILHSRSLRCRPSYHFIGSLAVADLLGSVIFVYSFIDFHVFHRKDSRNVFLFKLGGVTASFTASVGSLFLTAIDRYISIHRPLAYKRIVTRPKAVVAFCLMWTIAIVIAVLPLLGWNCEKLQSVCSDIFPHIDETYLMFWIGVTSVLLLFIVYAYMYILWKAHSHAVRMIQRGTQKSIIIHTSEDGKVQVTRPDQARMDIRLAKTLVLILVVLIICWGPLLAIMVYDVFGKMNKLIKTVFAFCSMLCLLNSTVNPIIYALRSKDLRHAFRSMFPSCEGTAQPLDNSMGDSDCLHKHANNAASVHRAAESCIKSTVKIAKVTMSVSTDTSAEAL
For experiment [2], the target named is Human CB2R (Cannabinoid receptor 2) (Homo sapiens (Human), UniProt P34972). The experiment can be described thus: CB-2 in vitro cAMP assay (HTRF), inverse agonism. In kind it is cell-based. The note with it: mean where tested more than once.
Chain of Human CB2R (Cannabinoid receptor 2) (P34972 whole entry): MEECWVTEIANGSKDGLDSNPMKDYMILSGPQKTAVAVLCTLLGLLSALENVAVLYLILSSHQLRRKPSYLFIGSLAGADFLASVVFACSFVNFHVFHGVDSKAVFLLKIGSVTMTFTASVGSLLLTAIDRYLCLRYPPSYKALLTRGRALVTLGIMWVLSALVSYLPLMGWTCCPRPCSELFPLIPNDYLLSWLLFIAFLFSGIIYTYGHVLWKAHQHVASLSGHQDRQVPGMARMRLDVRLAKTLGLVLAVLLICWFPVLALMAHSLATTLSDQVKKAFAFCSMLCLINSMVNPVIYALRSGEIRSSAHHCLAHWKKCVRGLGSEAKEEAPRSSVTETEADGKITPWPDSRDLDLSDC

One may read the EC50 as the concentration at which the effect is half-maximal. The low end stands for higher potency in that assay, the high end for lower potency in that assay. On to `O=c1cc(NC2CCN(S(=O)(=O)C(F)(F)F)CC2)c2cc(C(c3ccc(Cl)cc3)c3ccc(Cl)cc3)cc(Br)c2[nH]1` [Compound 92, 6-(bis(4-chlorophenyl)methyl)-8-bromo-4-((1-((trifluoromethyl)sulfonyl)piperidin-4-yl)amino)quinolin-2(1H)-one], for which the EC50 in experiment [1] turned out to be 0.01 µM; in experiment [2], 0.05 µM.
With `O=c1cc(Nc2ccc(CC(F)(F)F)cc2)c2cc(C(c3ccc(Cl)cc3)c3ccc(Cl)cc3)cc(Br)c2[nH]1` [Compound 93], the EC50 in experiment [1] was 0.015 µM; in experiment [2], over 10 µM.
The matching figures for `COCCOc1ccc(Nc2cc(=O)[nH]c3ccc(C(c4ccc(Cl)cc4)c4ccc(Cl)cc4)cc23)cc1` [Compound 94, 6-[Bis(4-chlorophenyl)methyl]-4-{[4-(2-methoxyethoxy)phenyl]-amino}quinolin-2(1H)-one]: 0.055 µM and over 10 µM.
Consider `CCOC(=O)CC(=O)N1CCC(Nc2cc(=O)[nH]c3ccc(C(c4ccc(Cl)cc4)c4ccc(Cl)cc4)cc23)CC1` [Compound 95, Ethyl 3-[4-({6-[bis(4-chlorophenyl)methyl]-2-oxo-1,2-dihydroquinolin-4-yl}amino)piperidin-1-yl]-3-oxopropanoate], for which the EC50 was found to be 0.013 µM in experiment [1] and 3.65 µM in experiment [2].
Regarding `O=C(O)CC(=O)N1CCC(Nc2cc(=O)[nH]c3ccc(C(c4ccc(Cl)cc4)c4ccc(Cl)cc4)cc23)CC1` [Compound 96, 3-[4-({6-[Bis(4-chlorophenyl)methyl]-2-oxo-1,2-dihydroquinolin-4-yl}amino)piperidin-1-yl]-3-oxopropanoic acid], the EC50 in experiment [1] was 0.22 µM; in experiment [2], over 10 µM.
`CCOC(=O)CCC(=O)N1CCC(Nc2cc(=O)[nH]c3ccc(C(c4ccc(Cl)cc4)c4ccc(Cl)cc4)cc23)CC1` [Compound 97, ethyl 4-[4-([6-[bis(4-chlorophenyl)methyl]-2-hydroxyquinolin-4-yl]amino)piperidin-1-yl]-4-oxobutanoate]: the EC50 amounted to 0.031 µM in experiment [1] and 9.9 µM in experiment [2].
The matching figures for `O=C(O)CCC(=O)N1CCC(Nc2cc(=O)[nH]c3ccc(C(c4ccc(Cl)cc4)c4ccc(Cl)cc4)cc23)CC1` [Compound 98, 4-(4-((6-(bis(4-chlorophenyl)methyl)-2-oxo-1,2-dihydroquinolin-4-yl)amino)piperidin-1-yl)-4-oxobutanoic acid]: 0.242 µM and over 10 µM.
Take `O=c1cc(NC2CCN(S(=O)(=O)C(F)(F)F)CC2)c2cc(C(c3ccc(Cl)cc3)c3ccc(Cl)cc3)cc(NC3CCN(S(=O)(=O)C(F)(F)F)CC3)c2[nH]1` [Compound 99]: the EC50 in experiment [1] and in experiment [2] was over 10 µM each time.
On to `COCCNc1cc(C(c2ccc(Cl)cc2)c2ccc(Cl)cc2)cc2c(NC3CCN(S(=O)(=O)C(F)(F)F)CC3)cc(=O)[nH]c12` [Compound 100, 6-(bis(4-chlorophenyl)methyl)-8-((2-methoxyethyl)amino)-4-((1-((trifluoromethyl)sulfonyl)piperidin-4-yl)amino)quinolin-2(1H)-one], for which the EC50 in experiment [1] was found to be 0.006 µM; in experiment [2] it was 0.2 µM.
With `COCCNc1ccc(C(c2ccc(Cl)cc2)c2cc(NCCOC)c3[nH]c(=O)cc(NC4CCN(S(=O)(=O)C(F)(F)F)CC4)c3c2)cc1` (stereo not shown) [Compound 101, 6-((4-chlorophenyl)(4-((2-methoxyethyl)amino)phenyl)methyl)-8-((2-methoxyethyl)amino)-4-((1-((trifluoromethyl)sulfonyl)piperidin-4-yl)amino)quinolin-2(1H)-one], the EC50 was determined as 0.015 µM in experiment [1] and 0.91 µM in experiment [2].
On to `CCOC(=O)CS(=O)(=O)N1CCC(Nc2cc(=O)[nH]c3ccc(C(c4ccc(Cl)cc4)c4ccc(Cl)cc4)cc23)CC1` [Compound 102, ethyl 2-((4-((6-(bis(4-chlorophenyl)methyl)-2-oxo-1,2-dihydroquinolin-4-yl)amino)piperidin-1-yl)sulfonyl)acetate], for which the EC50 in experiment [1] is 0.017 µM; in experiment [2], over 10 µM.
Consider `CCOC(=O)CCCNc1cc(C(c2ccc(Cl)cc2)c2ccc(Cl)cc2)cc2c(NC3CCN(S(=O)(=O)C(F)(F)F)CC3)cc(=O)[nH]c12` [Compound 104, Ethyl 4-({6-[bis(4-chlorophenyl)methyl]-2-oxo-4-({1-[(trifluoromethyl)sulfonyl]-piperidin-4-yl}amino)-1,2-dihydroquinolin-8-yl}amino)butanoate], for which the EC50 in experiment [1] was 1.12 µM; in experiment [2], over 10 µM.
In the case of `CC(C)(C)OC(=O)COc1ccc(Nc2cc(=O)[nH]c3ccc(C(c4ccc(Cl)cc4)c4ccc(Cl)cc4)cc23)cc1` [Compound 105, tert-butyl 2-(4-((6-(bis(4-chlorophenyl)methyl)-2-oxo-1,2-dihydroquinolin-4-yl)amino)phenoxy)acetate], the EC50 in experiment [1] was 0.095 µM; in experiment [2], over 10 µM.
With `NC(=O)CC(=O)N1CCC(Nc2cc(=O)[nH]c3ccc(C(c4ccc(Cl)cc4)c4ccc(Cl)cc4)cc23)CC1` [Compound 106, 3-(4-((6-(bis(4-chlorophenyl)methyl)-2-oxo-1,2-dihydroquinolin-4-yl)amino)piperidin-1-yl)-3-oxopropanamide], the EC50 in experiment [1] stood at 1.55 µM; in experiment [2], 6.5 µM.
Turning to `O=C1CCCN1c1cc(C(c2ccc(Cl)cc2)c2ccc(Cl)cc2)cc2c(NC3CCN(S(=O)(=O)C(F)(F)F)CC3)cc(=O)[nH]c12` [Compound 107, 6-(bis(4-chlorophenyl)methyl)-8-(2-oxopyrrolidin-1-yl)-4-((1-((trifluoromethyl)sulfonyl)piperidin-4-yl)amino)quinolin-2(1H)-one], the EC50 was 0.052 µM in experiment [1] and 0.67 µM in experiment [2].
For `O=C(O)CCCNc1cc(C(c2ccc(Cl)cc2)c2ccc(Cl)cc2)cc2c(NC3CCN(S(=O)(=O)C(F)(F)F)CC3)cc(=O)[nH]c12` [Compound 108, 4-((6-(bis(4-chlorophenyl)methyl)-2-oxo-4-((1-((trifluoromethyl)sulfonyl)piperidin-4-yl)amino)-1,2-dihydroquinolin-8-yl)amino)butanoic acid], in that order: 0.31 µM and 0.46 µM.
For `O=C(O)COc1ccc(Nc2cc(=O)[nH]c3ccc(C(c4ccc(Cl)cc4)c4ccc(Cl)cc4)cc23)cc1` [Compound 109, 2-(4-((6-(bis(4-chlorophenyl)methyl)-2-oxo-1,2-dihydroquinolin-4-yl)amino)phenoxy)acetic acid], in that order: 5.12 µM and over 10 µM.
Take `COCCn1c(=O)cc(NC2CCN(S(=O)(=O)C(F)(F)F)CC2)c2cc(C(c3ccc(Cl)cc3)c3ccc(Cl)cc3)ccc21` [Compound 110, 6-(bis(4-chlorophenyl)methyl)-1-(2-methoxyethyl)-4-((1-((trifluoromethyl)sulfonyl)piperidin-4-yl)amino)quinolin-2(1H)-one]: the EC50 in experiment [1] was 0.228 µM; in experiment [2], over 10 µM.
On to `NC(=O)COc1ccc(Nc2cc(=O)[nH]c3ccc(C(c4ccc(Cl)cc4)c4ccc(Cl)cc4)cc23)cc1` [Compound 111, 2-(4-((6-(bis(4-chlorophenyl)methyl)-2-oxo-1,2-dihydroquinolin-4-yl)amino)phenoxy)acetamide], for which the EC50 in experiment [1] is 0.099 µM; in experiment [2] it was over 10 µM.
On to `NC(=O)CCC(=O)N1CCC(Nc2cc(=O)[nH]c3ccc(C(c4ccc(Cl)cc4)c4ccc(Cl)cc4)cc23)CC1` [Compound 112, 4-[4-({6-[Bis(4-chlorophenyl)methyl]-2-oxo-1,2-dihydroquinolin-4-yl}amino)piperidin-1-yl]-4-oxobutanamide], for which the EC50 in experiment [1] was 0.302 µM; in experiment [2], over 10 µM.
Regarding `COC(=O)c1ccc(C(=O)N2CCC(Nc3cc(=O)[nH]c4ccc(C(c5ccc(Cl)cc5)c5ccc(Cl)cc5)cc34)CC2)cc1` [Compound 113, Methyl 4-{[4-({6-[bis(4-chlorophenyl)methyl]-2-oxo-1,2-dihydroquinolin-4-yl}amino)piperidin-1-yl]carbonyl}benzoate], the EC50 in experiment [1] is 0.025 µM; in experiment [2] it was over 10 µM.
As to `CC(C)(C)OC(=O)CCN1CCC(Nc2cc(=O)[nH]c3ccc(C(c4ccc(Cl)cc4)c4ccc(Cl)cc4)cc23)CC1` [Compound 114, tert-butyl 3-(4-((6-(bis(4-chlorophenyl)methyl)-2-oxo-1,2-dihydroquinolin-4-yl)amino)piperidin-1-yl)propanoate], the EC50 was 0.103 µM in experiment [1] and over 10 µM in experiment [2].
With `O=C(O)CCN1CCC(Nc2cc(=O)[nH]c3ccc(C(c4ccc(Cl)cc4)c4ccc(Cl)cc4)cc23)CC1` [Compound 115, 3-[4-({6-[Bis(4-chlorophenyl)methyl]-2-oxo-1,2-dihydroquinolin-4-yl}amino)piperidin-1-yl]propanoic acid], the EC50 in experiment [1] and in experiment [2] was over 10 µM each time.
With `O=C(O)c1ccc(C(=O)N2CCC(Nc3cc(=O)[nH]c4ccc(C(c5ccc(Cl)cc5)c5ccc(Cl)cc5)cc34)CC2)cc1` [Compound 116, 4-{[4-({6-[Bis(4-chlorophenyl)methyl]-2-oxo-1,2-dihydroquinolin-4-yl}amino)piperidin-1-yl]carbonyl}benzoic acid], the values for the EC50 in experiment [1] and in experiment [2] were 0.438 µM and over 10 µM, respectively.
Consider `O=C(O)CN1CCC(Nc2cc(=O)[nH]c3ccc(C(c4ccc(Cl)cc4)c4ccc(Cl)cc4)cc23)CC1` [Compound 117, [4-({6-[Bis(4-chlorophenyl)methyl]-2-oxo-1,2-dihydroquinolin-4-yl}amino)piperidin-1-yl]acetic acid], for which the EC50 in experiment [1] was 9.7 µM; in experiment [2], over 10 µM.
On to `CC(C)(C)OC(=O)/N=C(/NC(=O)OC(C)(C)C)N1CCC(Nc2cc(=O)[nH]c3ccc(C(c4ccc(Cl)cc4)c4ccc(Cl)cc4)cc23)CC1` [Compound 119, (Z)-tert-butyl ((4-((6-(bis(4-chlorophenyl)methyl)-2-oxo-1,2-dihydroquinolin-4-yl)amino)piperidin-1-yl)((tert-butoxycarbonyl)imino)methyl)carbamate], for which the EC50 in experiment [1] was 0.128 µM; in experiment [2] it was over 10 µM.
